# Values quoted from earlier work as cited in PMC9370779, “Traditional Medicinal Uses, Phytochemistry, Biological Properties, and Health Applications of Vitex sp” (Plants, 2022).
# “Also recorded” adds a separate entry of the source.
# Assays:
# [1] = system: NADP(H); quinone oxireductase type1 (QR1); design: method as in PMID 23662135
# dopamine-D2-receptor = target: dopamine-D2-receptor; design: method as in PMID 10865453
# [2] = system: severe myelogenous leukemia tumor (K562) cells; design: method as in doi:10.1016/j.jscs.2021.101298; conditions: read-out: cytotoxicity against K562 cells, IC50 value
# Topoisomerase-1 (Top1) = system: Topoisomerase-1 (Top1); design: method as in PMID 28602939
# HCT 116 cells = system: HCT 116 cells; design: method as in PMID 28602939
# [3] = design: method as in PMID 28602939; conditions: cell line not stated
# [4] = system: human nasopharyngeal carcinoma (CNE1) cell line; design: method as in PMID 28453270; conditions: read-out: cytotoxic activity against CNE1, IC50 value
# MOR = system: MOR; design: method as in PMID 21163339
# DOR = system: DOR; design: method as in PMID 21163339
# BV-2 cells = system: BV-2 cells; design: method as in PMID 31448638
# [5] = system: LPS-induced NO production in murine microglial cell BV-2 cells; design: method as in PMID 31448638; conditions: read-out: inhibition of LPS-stimulated NO production, IC50
# [6] = system: NO production in LPS-induced murine macrophage (RAW 264.7) cells; design: method as in PMID 29429059; conditions: LPS-induced RAW 264.7 macrophages, up to 100 μM
# [7] = system: human liver carcinoma (HepG2) cell lines; design: method as in PMID 27118321
# Musca = system: Musca; design: method as in PMID 12444704
# [8] = system: gastric cancer (SGC-7901)
# [9] = system: esophageal carcinoma (Eca-109)
# [10] = system: pancreatic cancer (PANC-01)
# RAW 264.7 macrophages = system: RAW 264.7 macrophages; design: method as in PMID 25245917; conditions: at 40 μM
# NO production = system: NO production; design: method as in PMID 25245917; conditions: at 80 μM, the highest concentration tested
# Musca domestica larvae = system: Musca domestica larvae; design: method as in doi:10.1016/S0031-9422(00)94985-9
# [11] = design: method as in PMID 24965780
# [12] = system: LPS-induced NO production in murine microglia (BV-2) cells; design: method as in PMID 27118321
# [13] = design: method as in PMID 27118321; conditions: ABTS stated for 131
# [14] = system: cervical cancer (HeLa) cell; design: method as in PMID 19156599; conditions: range given for both compounds together; read-out: inhibition of HeLa cell proliferation, IC50
# [15] = system: LPS-induced NO production; design: method as in PMID 31302252
# IL-6 = system: IL-6; design: method as in PMID 31302252
# NF-κB signal pathways = system: NF-κB signal pathways; design: method as in PMID 31302252
# COX-2 = system: COX-2; design: method as in PMID 31302252
# [16] = system: interleukin 1-beta (IL-1β); design: method as in PMID 31302252
# [17] = system: inducible nitric oxide synthase (iNOS); design: method as in PMID 31302252
compound,measurement,setting,value
"CC(=O)OC1CC(C)C(O)(CCC2=CC(=O)NC2)C2(C)CCCC(C)(C)C12 (centres unmarked) [Compound 55, vitexlactam C]",QR1 induction activity,[1],moderate results; also recorded: Compound 55 showed moderate result on NADP(H); quinone oxireductase type1 (QR1) induction activity
"C=CC(C)(O)CCC1=C(C)C(OC(C)=O)C(OC(C)=O)C2C(C)(C)CCCC12C (stereo not drawn) [Compound 52, 6β,7β-diacetoxy-13-hydroxy-labda-8,14-diene]","affinity to the dopamine-D2-receptor, IC50 value",dopamine-D2-receptor,It showed strong affinity to the dopamine-D2-receptor with IC50 value of 15 μg/mL.
"CC(=O)OC1CC(C)C2(CCC3(COC(=O)C3)O2)C2(C)CCCC(C)(C)C12 (centres unmarked) [Compound 99, 9-epivitexnegundin]",IC50,[2],> 100 µM
C=CC(C)(O)CCC1(C)C2=C(CC(OCC)C1C)C(C)(C)CCC2 (centres unmarked) [Compound 90],Top1 inhibition compared with camptothecin (CPT),Topoisomerase-1 (Top1),equipotent
same,cytotoxicity against HCT 116 cells (rank),HCT 116 cells,most cytotoxic
same,cytotoxicity (in words),[3],moderate cytotoxicity in the micromolar range; also recorded: moderate cytotoxicity at micromolar range
"C[C@@H]1CC[C@H]2C(C)(C)CCC[C@]2(C)[C@@]1(O)CCc1cc[nH]c1C#N [Compound 79, vitepyrroloid A]",IC50,[4],8.7 µM
"CC(=O)O[C@@H]1C[C@@H](C)[C@](O)(CCC2=CC(=O)OC2O)[C@@]2(C)CCCC(C)(C)[C@H]12 (some centres unmarked) [Compound 58, Viteagnusin I]",activity on opioid receptor assay MOR,MOR,No activity was shown on opioid receptor assays DOR and MOR.
same,activity on opioid receptor assay DOR,DOR,No activity was shown on opioid receptor assays DOR and MOR.
"O=C(O)CC1CCC(=O)C1CC=CCCOC1OC(COC(=O)C=Cc2ccc(O)c(O)c2)C(O)C(O)C1O (centres unmarked) [Compound 159, 12-hydroxyjasmonic acid (6-O-caffeoyl)glucoside]",cytotoxic effect on BV-2 cells,BV-2 cells,no cytotoxic effect; also recorded: no effect of cytotoxicity
same,IC50,[5],> 100 µM
"C[C@@H]1C[C@@H](O)C2C(C)(C)[C@@H](O[C@@H]3O[C@H](CO)[C@@H](O)[C@H](O)[C@H]3O)CC[C@]2(C)[C@@]1(O)CCC1=CCOC1=O (stereo partly drawn) [Compound 96, (3S,5S,6S,8R,9R,10S)-3,6,9-trihydroxy-13(14)-labdean-16,15-olide-3-O-β-D-gluco-pyranoside]",inhibitory effect on NO production (in words),[6],No inhibitory activity on NO production in LPS-induced RAW 264.7 macrophages up to concentration of 100 μM
"COc1cc(C2c3c(cc(OC)c(O)c3OC)C=C(C=O)C2COC2OC(CO)C(O)C(O)C2O)ccc1O (centres unmarked) [Compound 130, vitexnegheteroin F]",cytotoxic activity against HepG2 cell lines,[7],moderate cytotoxic activity; also recorded: Exhibited moderate cytotoxic activities against human liver carcinoma (HepG2) cell lines
"CC(C)(O)CCC[C@](C)(O)C1CC[C@@]2(O)C3=CC(=O)[C@@H]4C[C@@H](O)[C@@H](O)C[C@]4(C)C3[C@H](O)C[C@]12C (some centres unmarked) [Compound 110, scabrasterone]",molting activity in the Musca bioassay,Musca,very weak molting activity
"CC1C(C=O)CCC2(C(=O)O)CCC3(C)C(=CCC4C5(C)CCC(O)C(C)(C)C5CCC43C)C12 (stereo not drawn) [Compound 147, 3β-hydroxy-30-al-urs-12-en-28-oic acid]",cytotoxic activity against SGC-7901,[8],"Exhibited cytotoxic activity against HL-60, SGC-7901, PANC-01, and Eca-109 cell lines"
same,cytotoxic activity against Eca-109,[9],"Exhibited cytotoxic activity against HL-60, SGC-7901, PANC-01, and Eca-109 cell lines"
same,cytotoxic activity against HL-60,leukemia (HL-60),"Exhibited cytotoxic activity against HL-60, SGC-7901, PANC-01, and Eca-109 cell lines"
same,cytotoxic activity against PANC-01,[10],"Exhibited cytotoxic activity against HL-60, SGC-7901, PANC-01, and Eca-109 cell lines"
"CC1(C)CC[C@@]23CC[C@@]4(C)[C@]5(C)CC[C@H]6C(C)(C)[C@@H](O)[C@H](O)C[C@]6(C)[C@H]5CC(=O)[C@]4(OC2=O)[C@@H]3C1 [Compound 145, cannabifolin E]",cell viability of RAW 264.7 macrophages,RAW 264.7 macrophages,< 70%
cannabifolin F [Compound 146],inhibition of NO production,NO production,< 50%
"CC(C)(O)C(O)CC[C@](C)(O)[C@H]1CC[C@@]2(O)C3=CC(=O)[C@@H]4C[C@@H](O)[C@@H](O)C[C@]4(C)C3CC[C@]12C (some centres unmarked) [Compound 103, pinnatasterone]",activity against Musca domestica larvae,Musca domestica larvae,Exhibited weak activity against M. domestica larvae
"COc1cc([C@H]2c3c(cc(OC)c(O)c3OC)C=C(C=O)[C@@H]2CO)ccc1O [Compound 128, vitexdoin F]",DPPH radical-scavenging activity compared with ascorbic acid,[11],Exhibited stronger activity than ascorbic acid using DPPH radical-scavenging assays
"COc1cc(C2c3cc(O)c(O)cc3C=C(C=O)C2COC2OC(CO)C(O)C(O)C2O)ccc1O (centres unmarked) [Compound 129, vitexnegheteroin E]",inhibition of LPS-induced NO production,[12],inhibitory activities
same,antioxidant activity,[13],antioxidant
"CC(=O)O[C@H]1CC[C@@]2(C)[C@@H](CC[C@@H](C)[C@]2(O)CCc2ccoc2)C1(C)C [Compound 56, Vitetrifolin H]",IC50,[14],4 to 28 µM
"CC1=C(CCC2=CCOC2=O)[C@@]2(C)CC[C@H](O)C(C)(C)[C@@H]2CC1 [Compound 98, (3S,5R,10S)-3-hydroxy-labd-8,13-dien-16,15-olide]",inhibition of LPS-induced NO production (in words),[15],strong
same,IC50,"[15]; read-out: inhibition of NO production, IC50 value",15.8 µM
same,inhibition of IL-6 level,IL-6,significant inhibition
same,inhibition of NF-κB signal pathways,NF-κB signal pathways,"able to inhibit; also recorded: inhibition on iNOS, COX-2 and NF-κB signal pathways"
same,inhibition of COX-2,COX-2,"able to inhibit; also recorded: inhibition on iNOS, COX-2 and NF-κB signal pathways"
same,inhibition of IL-1β level,[16],significant inhibition
same,inhibition of iNOS,[17],"able to inhibit; also recorded: inhibition on iNOS, COX-2 and NF-κB signal pathways"
